How the values were obtained:
[1] = target: T1, κ opioid receptor (Homo sapiens (Human), UniProt P41145); assay: κ-opioid receptor [35S]GTPγS functional assay, HEK-293 or CHO cells; type: biochemical; details: for EC50: GTPγS; for Emax: relative to U69,593
Experimental: (§1) κ-Opioid Receptor Functional Assay Procedures: Functional [^35S]GTPγS binding assays were conducted as follows. κ opioid receptor membrane solution was prepared by sequentially adding final concentrations of 0.026 μg/μl κ membrane protein (in-house), 10 μg/mL saponin, 3 μM GDP and 0.20 nM [^35S]GTPγS to binding buffer (100 mM NaCl, 10 mM MgCl2, 20 mM HEPES, pH 7.4) on ice. The prepared membrane solution (190 μl/well) was transferred to 96-shallow well polypropylene plates containing 10 μl of 20× concentrated stock solutions of agonist prepared in DMSO. Plates were incubated for 30 min at a temperature of about 25° C. with shaking. Reactions were terminated by rapid filtration onto 96-well Unifilter GF/B filter plates (Perkin Elmer, Shelton, Conn.) using a 96-well tissue harvester (Packard) and followed by three filtration washes with 200 μl ice-cold binding buffer (10 mM NaH2PO4, 10 mM Na2HPO4, pH 7.4). Filter plates were subsequently dried at 50° C. for 2-3 hours. Fifty μl/well scintillation cocktail (Perkin Elmer, Shelton, Conn.) was added and plates were counted in a Packard Top-Count for 1 min/well.
(§2) κ-Oploid Receptor Functional Data: κ GTP EC50 is the concentration of a compound providing 50% of the maximal response for the compound at a K receptor.
(§3) κ GTP Emax (%) is the maximal effect elicited by a compound relative to the effect elicited by U69,593.
(§4) In TABLE 2, activity response of certain Compounds of the Invention to the μ-, δ- and κ-opioid receptors was determined as described above for functional assays using HEK-293 or CHO cells.

[2] = target: T2, μ-opioid receptor (Homo sapiens (Human), UniProt P35372); assay: μ-opioid receptor radioligand dose-displacement binding assay ([3H]-diprenorphine)
Experimental: μ-Opioid Receptor Binding Assay Procedures: Radioligand dose-displacement binding assays for μ-opioid receptors used 0.3 nM [^3H]-diprenorphine (Perkin Elmer, Shelton, Conn.), with […] membrane protein/well in a final volume of 500 μl binding buffer (10 mM MgCl2, 1 mM EDTA, 5% DMSO, 50 mM HEPES, pH 7.4). Reactions were carried out in the absence or presence of increasing concentrations of unlabeled naloxone. All reactions were conducted in 96-deep well polypropylene plates for 2 hours at room temperature. Binding reactions were terminated by rapid filtration onto 96-well Unifilter GF/C filter plates (Perkin Elmer, Shelton, Conn.), presoaked in 0.5% polyethylenimine using a 96-well tissue harvester (Perkin Elmer, Shelton, Conn.) followed by performing three filtration washes with 500 μl of ice-cold binding buffer. Filter plates were subsequently dried at 50° C. for 2-3 hours. BetaScint scintillation cocktail (Perkin Elmer, Shelton, Conn.) was added (50 μl/well), and plates were counted using a Packard Top-Count for 1 min/well. The data were analyzed using the one-site competition curve fitting functions in GraphPad PRISM™ v. 3.0 or higher (San Diego, Calif.), or an in-house function for one-site competition curve-fitting.
(§5) In TABLE 1, binding affinity of certain Compounds of the Invention to the μ-, δ- and κ-opioid receptors was determined as described above.

[3] = target: recombinant human kappa opioid receptor (κ) (Homo sapiens (Human), UniProt P41145); assay: κ-opioid receptor radioligand dose-displacement binding assay ([3H]-U69,593)
Experimental: κ-Opioid Receptor Binding Assay Procedures: Membranes from HEK-293 cells, CHO or U-2 OS cells expressing the recombinant human kappa opioid receptor (κ) (cloned in house) were prepared by lysing cells in ice cold hypotonic buffer (2.5 mM MgCl2, 50 mM HEPES, pH 7.4) (10 mL/10 cm dish) followed by homogenization with a tissue grinder/Teflon pestle. Membranes were collected by centrifugation at 30,000×g for 15 min at 4° C. and pellets were resuspended in hypotonic buffer to a final concentration of 1-3 mg/mL. Protein concentrations were determined using the BioRad protein assay reagent with bovine serum albumen as standard. Aliquots of κ receptor membranes were stored at −80° C.
Radioligand dose displacement assays used 0.4 nM [^3H]-U69,593 (GE Healthcare, Piscataway, N.J.; 40 Ci/mmole) with 15 μg membrane protein (recombinant κ opioid receptor expressed in HEK 293 cells; in-house prep) in a final volume of 200 μl binding buffer (5% DMSO, 50 mM Trizma base, pH 7.4). Non-specific binding was determined in the presence of 10 μM unlabeled naloxone or U69,593. All reactions were performed in 96-well polypropylene plates for 1 hour at a temperature of about 25° C. Binding reactions were terminated by rapid filtration onto 96-well Unifilter GF/C filter plates (Perkin Elmer, Shelton, Conn.) presoaked in 0.5% polyethylenimine (Sigma). Harvesting was performed using a 96-well tissue harvester (Perkin Elmer, Shelton, Conn.) followed by five filtration washes with 200 μl ice-cold binding buffer. Filter plates were subsequently dried at 50° C. for 1-2 hours. Fifty μl/well scintillation cocktail (Perkin Elmer, Shelton, Conn.) was added and plates were counted in a Packard Top-Count for 1 min/well.
as §5

[4] = target: T2, μ-opioid receptor; assay: μ-opioid receptor [35S]GTPγS functional assay, HEK-293 or CHO cells; type: biochemical; details: for EC50: GTPγS; for Emax: relative to DAMGO
Experimental: (§6) μ-Opioid Receptor Functional Assay Procedures: [^35S]GTPγS functional assays were conducted using freshly thawed μ-receptor membranes prepared in-house from a cell line expressing recombinant μ opioid receptor in a HEK-293, CHO or U-2 OS cell background, or purchased from a commercial source (Perkin Elmer, Shelton, Conn.; or DiscovRx, Fremont, Calif.). Assay reactions were prepared by sequentially adding the following reagents to binding buffer (100 mM NaCl, 10 mM MgCl2, 20 mM HEPES, pH 7.4) on ice (final concentrations indicated): membrane protein (0.026 mg/mL), saponin ([…]), GDP ([…]) and [^35S]GTPγS (0.20 nM; Perkin Elmer, Shelton, Conn.). The prepared membrane solution (190 μl/well) was transferred to 96-shallow well polypropylene plates containing 10 μl of 20× concentrated stock solutions of the agonist [D-Ala^2, N-methyl-Phe^4 Gly-ol^5]-enkephalin (DAMGO) prepared in dimethyl sulfoxide (DMSO). Plates were incubated for 30 min at about 25° C. with shaking. Reactions were terminated by rapid filtration onto 96-well Unifilter GF/B filter plates (Perkin Elmer, Shelton, Conn.) using a 96-well tissue harvester (Perkin Elmer, Shelton, Conn.) followed by three filtration washes with 200 μl of ice-cold wash buffer (10 mM NaH2PO4, 10 mM Na2HPO4, pH 7.4). Filter plates were subsequently dried at 50° C. for 2-3 hours. BetaScint scintillation cocktail (Perkin Elmer, Shelton, Conn.) was added (50 μl/well) and plates were counted using a Packard Top-Count for 1 min/well. Data were analyzed using the sigmoidal dose-response curve fitting functions in GraphPad PRISM v. 3.0, or an in-house function for non-linear, sigmoidal dose-response curve-fitting.
(§7) μ-Opioid Receptor Functional Data: μ GTP EC50 is the concentration of a compound providing 50% of the maximal response for the compound at a μ-opioid receptor.
(§8) μ GTP Emax (%) is the maximal effect elicited by a compound relative to the effect elicited by DAMGO, a standard μ agonist. Generally, the μ GTP Emax (%) value measures the efficacy of a compound to treat or prevent pain or other Conditions.
as §4

[5] = target: T1, κ opioid receptor; assay: κ-opioid receptor [35S]GTPγS functional assay, U-2 OS cells; type: biochemical; details: for EC50: GTPγS; for Emax: relative to U69,593
Experimental: as §1, §2, §3
(§9) The following TABLE 3 provides results on the activity response of certain Compounds of the Invention at the μ- and κ-opioid receptors determined as described above using U-2 OS cells.

[6] = target: T2, μ-opioid receptor; assay: μ-opioid receptor [35S]GTPγS functional assay, U-2 OS cells; type: biochemical; details: for EC50: GTPγS; for Emax: relative to DAMGO
Experimental: as §6, §7, §8, §9

O=C1C[C@]23CCN(CC4CC4)[C@H](Cc4ccc(O)cc42)C3=CN1Cc1ccc(O)cc1 [Compound 6, (5R,10bR)-13-(cyclopropylmethyl)-9-hydroxy-3-(4-hydroxybenzyl)-5,6-dihydro-1H-5,10b-(epiminoethano)benzo[f]isoquinolin-2(3H)-one]
EC50 [1]: 30.6 ± 6.75 nM
Emax [1]: 41.7%
Ki [2]: 22.8 ± 8.32 nM
Ki [3]: 1.27 ± 0.19 nM
EC50 [4]: 57.5 ± 15.5 nM
Emax [4]: 28%

COc1ccc2c(c1)[C@@]13CCNC[C@H]1[C@@H](C2)N(CC1CC1)CC3 [Compound 10, (4aS,5R,10bR)-13-(cyclopropylmethyl)-9-methoxy-2,3,4,4a,5,6-hexahydro-1H-5,10b-(epiminoethano)benzo[f]isoquinoline]
EC50 [1]: 2180 ± 562 nM
Emax [1]: 71.3%
Ki [3]: 37 ± 7.96 nM
EC50 [4]: 2180 ± 394 nM
Emax [4]: 66.7%

NC(=O)CN1CC[C@]23CCN(CC4CC4)[C@H](Cc4ccc(O)cc42)[C@@H]3C1 [Compound 11, 2-((4aS,5R,10bR)-13-(cyclopropylmethyl)-9-hydroxy-4,4-a,5,6-tetrahydro-1H-5,10b-(epiminoethano)benzo[f]isoquinolin-3(2H)-yl)acetamide]
EC50 [5]: 0.92 ± 0.15 nM
Emax [5]: 102 ± 2.33%
EC50 [6]: 2.41 ± 0.36 nM
Emax [6]: 39.3 ± 3.28%
EC50 [1]: 5.25 ± 1.09 nM
Emax [1]: 63%
Ki [3]: 0.26 nM
EC50 [4]: 2.44 ± 0.76 nM
Emax [4]: 87.2%

C[C@H](N)C(=O)N1CC[C@]23CCN(CC4CC4)[C@H](Cc4ccc(O)cc42)[C@@H]3C1 [Compound 14, (S)-2-amino-1-((4aS,5R,10bS)-13-(cyclopropylmethyl)-9-hydroxy-4,4-a,5,6-tetrahydro-1H-5,10b-(epiminoethano)benzo[f]isoquinolin-3(2H)-yl)propan-1-one]
EC50 [5]: 0.16 ± 0.025 nM
Emax [5]: 104 ± 3.61%
EC50 [6]: 9.82 ± 1.96 nM
Emax [6]: 35.3 ± 4.18%
EC50 [1]: 1.98 ± 0.51 nM
Emax [1]: 86%
Ki [3]: 0.09 ± 0.02 nM
EC50 [4]: 4.62 ± 1.55 nM
Emax [4]: 82.7%

O=C(O)CN1CC[C@]23CCN(CC4CC4)[C@H](Cc4ccc(O)cc42)[C@@H]3C1 [Compound 15, 2-((4aS,5R,10bR)-13-(cyclopropylmethyl)-9-hydroxy-4,4-a,5,6-tetrahydro-1H-5,10b-(epiminoethano)benzo[f]isoquinolin-3(2H)-yl)acetic acid]
EC50 [5]: 5.44 ± 0.39 nM
Emax [5]: 108 ± 4.7%
EC50 [6]: 20.8 ± 0.89 nM
Emax [6]: 27 ± 3%
EC50 [1]: 55 ± 18.9 nM
Emax [1]: 73.3%
Ki [3]: 2.52 ± 0.97 nM
EC50 [4]: 28.6 ± 9.31 nM
Emax [4]: 53.3%

COc1ccc2c(c1)[C@]13CCN(CC4CC4)[C@H](C2)[C@@H]1CNC(=O)C3 [Compound 3, (4aS,5R,10bS)-13-(cyclopropylmethyl)-9-methoxy-4,4-a,5,6-tetrahydro-1H-5,10b-(epiminoethano)benzo[f]isoquinolin-2(3H)-one]
EC50 [1]: 435 ± 74 nM
Emax [1]: 84%
Ki [3]: 5.84 ± 0.59 nM
EC50 [4]: 856 ± 48.7 nM
Emax [4]: 62.7%

COc1ccc(CN2CC[C@]34CCN(CC5CC5)[C@H](Cc5ccc(OC)cc53)[C@@H]4C2)cc1 [Compound 9, (4aS,5R,10bR)-13-(cyclopropylmethyl)-9-methoxy-3-(4-methoxybenzyl)-2,3,4,4a,5,6-hexahydro-1H-5,10b-(epiminoethano)benzo[f]isoquinoline]
EC50 [1]: 1990 ± 339 nM
Emax [1]: 46.7%
Ki [3]: 204 ± 48.6 nM
EC50 [4]: 732 ± 70.1 nM
Emax [4]: 89%

Oc1ccc(CN2CC[C@]34CCN(CC5CC5)[C@H](Cc5ccc(O)cc53)[C@@H]4C2)cc1 [Compound 12, (4aS,5R,10bR)-13-(cyclopropylmethyl)-3-(4-hydroxybenzyl)-2,3,4,4a,5,6-hexahydro-1H-5,10b-(epiminoethano)benzo[f]isoquinolin-9-ol]
EC50 [5]: 6.51 ± 1.03 nM
Emax [5]: 110 ± 2.73%
EC50 [6]: 7.11 ± 2.99 nM
Emax [6]: 47 ± 8.14%
EC50 [1]: 20.8 ± 2.53 nM
Emax [1]: 54.3%
Ki [3]: 0.98 ± 0.25 nM
EC50 [4]: 6.87 ± 0.84 nM
Emax [4]: 58%

COc1ccc(CN2C=C3[C@H]4Cc5ccc(OC)cc5[C@@]3(CCN4CC3CC3)CC2=O)cc1 [Compound 2, (5R,10bR)-13-(cyclopropylmethyl)-9-methoxy-3-(4-methoxybenzyl)-5,6-dihydro-1H-5,10b-(epiminoethano)benzo[f]isoquinolin-2(3H)-one]
EC50 [1]: 714 ± 256 nM
Emax [1]: 68.8%
EC50 [4]: 268 ± 44 nM
Emax [4]: 95.3%

— patent US8937084B2, “Nitrogen containing morphinan derivatives and the use thereof” (Purdue Pharma L.P., priority 2012, dated 2015)
